According to ChEMBL document CHEMBL3414493, “Design, synthesis and anticholinesterase activity of novel benzylidenechroman-4-ones bearing cyclic amine side chain” (Eur J Med Chem, 2015):

Tests used:
Acetylcholinesterase [1] = molecular target: T1, Acetylcholinesterase (Electrophorus electricus, UniProt O42275)
Description: Inhibition of electric eel AChE pre-incubated for 3 mins before acetylthiocholine substrate addition by Ellman's reagent based spectrophotometry

Cholinesterase = Cholinesterase (Equus caballus, UniProt P81908)
Description: Inhibition of equine serum BuChE pre-incubated for 3 mins before butyrylthiocholine substrate addition by Ellman's reagent based spectrophotometry

Acetylcholinesterase [2] = molecular target: T1, Acetylcholinesterase; remark: listed apart in the source
Description: Inhibition of electric eel AChE pre-incubated for 3 mins before acetylthiocholine substrate addition by Lineweaver-Burk plot

T1 sequence (O42275 whole entry): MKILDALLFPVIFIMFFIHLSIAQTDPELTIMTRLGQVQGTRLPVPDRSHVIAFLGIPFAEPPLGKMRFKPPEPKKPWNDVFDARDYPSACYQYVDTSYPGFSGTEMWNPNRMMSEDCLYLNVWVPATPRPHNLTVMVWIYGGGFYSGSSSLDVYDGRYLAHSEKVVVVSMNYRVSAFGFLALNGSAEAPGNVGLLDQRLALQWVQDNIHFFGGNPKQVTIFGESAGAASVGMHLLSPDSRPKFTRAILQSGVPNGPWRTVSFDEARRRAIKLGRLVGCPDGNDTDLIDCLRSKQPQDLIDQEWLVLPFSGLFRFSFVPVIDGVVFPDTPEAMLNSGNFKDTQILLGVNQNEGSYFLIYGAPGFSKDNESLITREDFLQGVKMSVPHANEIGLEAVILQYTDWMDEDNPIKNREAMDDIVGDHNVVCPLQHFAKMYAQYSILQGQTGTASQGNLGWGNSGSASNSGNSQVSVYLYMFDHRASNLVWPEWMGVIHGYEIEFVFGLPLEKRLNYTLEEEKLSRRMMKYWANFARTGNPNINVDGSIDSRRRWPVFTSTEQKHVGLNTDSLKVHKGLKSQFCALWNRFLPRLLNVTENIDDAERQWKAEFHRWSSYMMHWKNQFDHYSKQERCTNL
Sequence of Cholinesterase (P81908 whole entry): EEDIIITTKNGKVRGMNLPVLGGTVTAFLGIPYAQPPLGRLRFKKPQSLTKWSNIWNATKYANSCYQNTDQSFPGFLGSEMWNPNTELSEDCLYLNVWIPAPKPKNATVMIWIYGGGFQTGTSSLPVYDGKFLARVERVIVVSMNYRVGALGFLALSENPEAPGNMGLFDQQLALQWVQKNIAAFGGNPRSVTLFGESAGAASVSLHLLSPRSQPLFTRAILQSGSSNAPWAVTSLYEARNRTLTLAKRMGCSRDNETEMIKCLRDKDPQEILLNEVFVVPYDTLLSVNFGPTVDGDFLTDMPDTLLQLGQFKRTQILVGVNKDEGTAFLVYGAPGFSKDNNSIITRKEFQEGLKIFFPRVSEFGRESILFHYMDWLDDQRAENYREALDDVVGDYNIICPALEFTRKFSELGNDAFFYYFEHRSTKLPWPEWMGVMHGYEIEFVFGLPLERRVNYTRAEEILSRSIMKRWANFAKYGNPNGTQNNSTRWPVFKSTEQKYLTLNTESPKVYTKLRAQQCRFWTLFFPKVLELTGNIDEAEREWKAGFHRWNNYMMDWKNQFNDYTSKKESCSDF

| Compound | IC50 (Acetylcholinesterase [1]) [µM] | IC50 (Cholinesterase) [µM] | Ki (Acetylcholinesterase [2]) [µM] |
| --- | --- | --- | --- |
| COc1ccc2c(c1)OC/C(=C\c1ccc(OCCCN3CCOCC3)cc1)C2=O | 13.9 | 101 |  |
| O=C1/C(=C/c2ccc(OCCCN3CCOCC3)cc2)COc2cc(O)ccc21 | 158 |  |  |
| CCOc1ccc2c(c1)OC/C(=C\c1ccc(OCCN3CCCCC3)cc1)C2=O | 0.122 | 0.854 | 0.27 |
| CCOc1ccc2c(c1)OC/C(=C\c1ccc(OCCCN3CCOCC3)cc1)C2=O | 6.84 | 28.7 |  |
| O=C1/C(=C/c2ccc(OCCCN3CCOCC3)cc2)COc2cc(OCc3ccccc3)ccc21 | 50 |  |  |
| O=C1/C(=C/c2ccc(OCCCN3CCCCC3)cc2)COc2cc(O)ccc21 | 2.38 | 27.4 |  |
| O=C1/C(=C/c2ccc(OCCN3CCOCC3)cc2)COc2cc(OCc3ccccc3)ccc21 | 6.44 | 83.7 |  |
| O=C1/C(=C/c2ccc(OCCN3CCCCC3)cc2)COc2cc(OCc3ccccc3)ccc21 | 0.207 | 2.58 |  |
| O=C1/C(=C/c2ccc(OCCCN3CCCCC3)cc2)COc2cc(OCc3ccccc3)ccc21 | 2.7 | 32.4 |  |
| CCOc1ccc2c(c1)OC/C(=C\c1ccc(OCCCN3CCCCC3)cc1)C2=O | 0.562 | 3.1 |  |
| COc1ccc2c(c1)OC/C(=C\c1ccc(OCCCN3CCCCC3)cc1)C2=O | 3.29 | 26.3 |  |
| O=C1/C(=C/c2ccc(OCCN3CCOCC3)cc2)COc2cc(O)ccc21 | 8.16 | 96 |  |
| COc1ccc2c(c1)OC/C(=C\c1ccc(OCCN3CCCCC3)cc1)C2=O | 0.173 | 8.2 |  |
| COc1ccc2c(c1)OC/C(=C\c1ccc(OCCN3CCOCC3)cc1)C2=O | 1.9 | 11.6 |  |
| COc1ccc2c(c1)OC/C(=C\c1ccc(OCCCN3CCCC3)cc1)C2=O | 1.1 | 6.85 |  |
| O=C1/C(=C/c2ccc(OCCCN3CCCC3)cc2)COc2cc(OCc3ccccc3)ccc21 | 3.5 | 49 |  |
| CCOc1ccc2c(c1)OC/C(=C\c1ccc(OCCN3CCOCC3)cc1)C2=O | 1 | 10.2 |  |
| O=C1/C(=C/c2ccc(OCCN3CCCCC3)cc2)COc2cc(O)ccc21 | 0.192 | 2.16 |  |
